From ChEMBL document CHEMBL5303573, “Mapping human microbiome drug metabolism by gut bacteria and their genes” (Nature, 2019) come the findings set out here.

The conditions of data set [1]: bacteroides stercoris, 12 h, 2 µM.
Description: The drug is tested on Bacteroides stercoris strain: ATCC43183 for biotransformation. The drug concentrations were measured before and after a 12-h incubation by liquid-chromatography-coupled mass spectrometry (LC–MS)
The conditions of data set [2]: bacteroides thetaiotaomicron, 12 h, 2 µM.
Description: The drug is tested on Bacteroides thetaiotaomicron strain: 3731 for biotransformation. The drug concentrations were measured before and after a 12-h incubation by liquid-chromatography-coupled mass spectrometry (LC–MS)
The nature of data set [3]: The drug is tested on Edwardsiella tarda strain: ATCC23685 for biotransformation. The drug concentrations were measured before and after a 12-h incubation by liquid-chromatography-coupled mass spectrometry (LC–MS). The settings on record: 2 µM.
A short description of data set [4]: The drug is tested on Clostridium sporogenes strain: ATCC15579 for biotransformation. The drug concentrations were measured before and after a 12-h incubation by liquid-chromatography-coupled mass spectrometry (LC–MS). The following applies: 2 µM.
A short description of data set [5]: The drug is tested on Bacteroides cellulosilyticus strain: DSM14838 for biotransformation. The drug concentrations were measured before and after a 12-h incubation by liquid-chromatography-coupled mass spectrometry (LC–MS). The settings on record: 2 µM.
Data set [6] is described as follows: The drug is tested on Anaerotruncus colihominis strain: DSM17241 for biotransformation. The drug concentrations were measured before and after a 12-h incubation by liquid-chromatography-coupled mass spectrometry (LC–MS). The settings on record: 2 µM.
Data set [7] is described as follows: The drug is tested on Subdoligranulum variabile strain: DSM15176 for biotransformation. The drug concentrations were measured before and after a 12-h incubation by liquid-chromatography-coupled mass spectrometry (LC–MS). The settings on record: 2 µM.
The nature of data set [8]: The drug is tested on Bacteroides finegoldii strain: DSM17565 for biotransformation. The drug concentrations were measured before and after a 12-h incubation by liquid-chromatography-coupled mass spectrometry (LC–MS). The following applies: 2 µM.
Data set [9] can be described thus: The drug is tested on Bacteroides fragilis strain: ATCC43859 for biotransformation. The drug concentrations were measured before and after a 12-h incubation by liquid-chromatography-coupled mass spectrometry (LC–MS). The following applies: 2 µM.
A short description of data set [10]: The drug is tested on Bacteroides caccae strain: ATCC43185 for biotransformation. The drug concentrations were measured before and after a 12-h incubation by liquid-chromatography-coupled mass spectrometry (LC–MS). The following applies: 2 µM.
For data set [11] the following is noted: parabacteroides distasonis, 12 h, 2 µM.
Description: The drug is tested on Parabacteroides distasonis strain: ATCC8503 for biotransformation. The drug concentrations were measured before and after a 12-h incubation by liquid-chromatography-coupled mass spectrometry (LC–MS)
Data set [12] in a line: The drug is tested on Clostridium sp. strain: fecal isolate for biotransformation. The drug concentrations were measured before and after a 12-h incubation by liquid-chromatography-coupled mass spectrometry (LC–MS). The settings on record: 2 µM.
Data set [13] in a line: The drug is tested on Collinsella intestinalis strain: DSM13280 for biotransformation. The drug concentrations were measured before and after a 12-h incubation by liquid-chromatography-coupled mass spectrometry (LC–MS). The settings on record: 2 µM.
Data set [14] is described as follows: The drug is tested on Clostridium scindens strain: ATCC35704 for biotransformation. The drug concentrations were measured before and after a 12-h incubation by liquid-chromatography-coupled mass spectrometry (LC–MS). The following applies: 2 µM.
The nature of data set [15]: The drug is tested on Blautia luti strain: DSM14534 for biotransformation. The drug concentrations were measured before and after a 12-h incubation by liquid-chromatography-coupled mass spectrometry (LC–MS). Set-up: dose 2 uM, timepoint 0 vs 12 hours. The following applies: 2 µM. The class given is ADME.
Data set [16] in a line: The drug is tested on Providencia rettgeri strain: DSM1131 for biotransformation. The drug concentrations were measured before and after a 12-h incubation by liquid-chromatography-coupled mass spectrometry (LC–MS). In kind it is ADME. Set-up: dose 2 uM, timepoint 0 vs 12 hours. The following applies: 2 µM.
Data set [17] can be described thus: The drug is tested on Anaerococcus hydrogenalis strain: DSM7454 for biotransformation. The drug concentrations were measured before and after a 12-h incubation by liquid-chromatography-coupled mass spectrometry (LC–MS). The settings on record: 2 µM.
Data set [18] in a line: The drug is tested on Ruminococcus gnavus strain: ATCC29149 for biotransformation. The drug concentrations were measured before and after a 12-h incubation by liquid-chromatography-coupled mass spectrometry (LC–MS). The settings on record: mediterraneibacter gnavus, 2 µM.
A short description of data set [19]: The drug is tested on Parabacteroides merdae strain: ATCC43184 for biotransformation. The drug concentrations were measured before and after a 12-h incubation by liquid-chromatography-coupled mass spectrometry (LC–MS). The following applies: 2 µM.
Data set [20] can be described thus: The drug is tested on Enterobacter cancerogenus strain: ATCC35316 for biotransformation. The drug concentrations were measured before and after a 12-h incubation by liquid-chromatography-coupled mass spectrometry (LC–MS). The settings on record: 2 µM.

On to `CC(C)(C)NCC(O)c1cc(Cl)c(N)c(Cl)c1` (stereo not given) [CLENBUTEROL], for which the “Bacterial Biotransformation” value in data set [1], in data set [2], in [3], in [4], in data set [5] and in data set [6] was “Compound NOT metabolized” in each case. The “Bacterial Biotransformation” value in data set [7], in [8], in data set [9], in data set [10], in [11] and in [12] was “Compound NOT metabolized” each time. The “Bacterial Biotransformation” value in data set [13], in data set [14], in [15], in data set [16], in [17] and in data set [18] was “Compound NOT metabolized” in each case. The “Bacterial Biotransformation” value in data set [19] and in data set [20] was “Compound NOT metabolized” each time.

`C#C[C@]1(O)CC[C@H]2[C@@H]3CCC4=Cc5oncc5C[C@]4(C)[C@H]3CC[C@@]21C` [DANAZOL]: the “Bacterial Biotransformation” value in data set [1], in data set [2], in [3], in data set [4], in [5] and in [6] was “Compound metabolized” in each case. Further, the “Bacterial Biotransformation” value in data set [7], in data set [8], in [9], in data set [10], in data set [11] and in data set [12] was “Compound metabolized” throughout. For the same compound, the “Bacterial Biotransformation” value in data set [13], in data set [14], in [15], in data set [16], in [17] and in data set [18] was “Compound metabolized” in each case. Moreover, the “Bacterial Biotransformation” value in data set [19] and in [20] was “Compound metabolized” throughout.

`CC(=O)OCC(=O)[C@@]12N=C(C)O[C@@H]1C[C@H]1[C@@H]3CCC4=CC(=O)C=C[C@]4(C)[C@H]3[C@@H](O)C[C@@]12C` [DEFLAZACORT]: the “Bacterial Biotransformation” value in data set [1], in data set [2], in data set [3], in data set [4], in data set [5] and in [6] was “Compound metabolized” throughout. Further, the “Bacterial Biotransformation” value in data set [7], in data set [8], in [9], in [10], in data set [11] and in [12] was “Compound metabolized” in each case. The “Bacterial Biotransformation” value in data set [13], in [14], in data set [15], in data set [16], in data set [17] and in data set [18] was “Compound metabolized” throughout. For the same compound, the “Bacterial Biotransformation” value in data set [19] and in data set [20] was “Compound metabolized” each time.

Regarding `CCOc1ccc2nc(S(N)(=O)=O)sc2c1` [ETHOXZOLAMIDE], the “Bacterial Biotransformation” value in [1], in [2], in data set [3], in [4], in [5] and in data set [6] was “Compound metabolized” each time. For the same compound, the “Bacterial Biotransformation” value is recorded as “Compound metabolized” in data set [7]; “Compound metabolized” in data set [8]; “Compound NOT metabolized” in data set [9]; “Compound metabolized” in data set [10]; “Compound metabolized” in data set [11]; “Compound metabolized” in data set [12]. Besides, the “Bacterial Biotransformation” value in data set [13], in data set [14], in data set [15], in [16], in data set [17] and in [18] was “Compound metabolized” each time. Also, the “Bacterial Biotransformation” value in data set [19] and in [20] was “Compound metabolized” throughout.

As to `CNCCC(Oc1ccc(C(F)(F)F)cc1)c1ccccc1` (stereo not given) [FLUOXETINE], the “Bacterial Biotransformation” value in data set [1] was “Compound metabolized”; in [2], “Compound metabolized”; in data set [3] it was “Compound NOT metabolized”; in data set [4], “Compound metabolized”; in [5], “Compound NOT metabolized”; in data set [6] it was “Compound NOT metabolized”. The “Bacterial Biotransformation” value in data set [7] was “Compound metabolized”; in data set [8], “Compound NOT metabolized”; in data set [9], “Compound metabolized”; in data set [10], “Compound metabolized”; in data set [11] it was “Compound metabolized”; in [12], “Compound metabolized”. Besides, the “Bacterial Biotransformation” value in [13] is “Compound NOT metabolized”; in data set [14], “Compound NOT metabolized”; in data set [15], “Compound NOT metabolized”; in data set [16], “Compound NOT metabolized”; in [17], “Compound NOT metabolized”; in [18] it was “Compound metabolized”. Besides, the “Bacterial Biotransformation” value in data set [19] and in [20] was “Compound metabolized” throughout.

For the compound `CC(Oc1c(Cl)cccc1Cl)C1=NCCN1` (stereo not given) [LOFEXIDINE], the “Bacterial Biotransformation” value in data set [1], in data set [2], in [3], in [4], in data set [5] and in data set [6] was “Compound metabolized” throughout. Also, the “Bacterial Biotransformation” value in data set [7] was “Compound metabolized”; in data set [8], “Compound metabolized”; in data set [9] it was “Compound metabolized”; in data set [10], “Compound metabolized”; in data set [11] it was “Compound NOT metabolized”; in data set [12], “Compound metabolized”. The “Bacterial Biotransformation” value is recorded as “Compound NOT metabolized” in data set [13]; “Compound metabolized” in data set [14]; “Compound metabolized” in data set [15]; “Compound metabolized” in data set [16]; “Compound metabolized” in data set [17]; “Compound metabolized” in data set [18]. Also, the “Bacterial Biotransformation” value in data set [19] and in data set [20] was “Compound metabolized” each time.
